Holding throughout (assay): inhibition of tumour cell growth, NCI panel, 48 h
Experiment [1] has as its system A498.
The test system of experiment [2] is COLO 205.
For experiment [3], the system named is HT-29.
Experiment [4] concerns Hs-578T.
The subject of experiment [5] is K562.
Experiment [6] deals with KM12.
The test system of experiment [7] is MDA-MB-231.
The subject of experiment [8] is MDA-N.
The test system of experiment [9] is NCI-H23.
The subject of experiment [10] is NCI-H460.
For experiment [11], the system named is NCI/ADR-RES.
Experiment [12] concerns OVCAR-5.
Experiment [13] concerns OVCAR-8.
The subject of experiment [14] is RXF 393.
For experiment [15], the system named is SF-539.
The subject of experiment [16] is SK-MEL-28.
For experiment [17], the system named is SK-MEL-5.
For experiment [18], the system named is SW-620.
Experiment [19] has as its system UACC-62.
Experiment [20] relates to UO-31.

The structures appear in SMILES notation.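 Results reflect a 48-hour exposure of cells in 96-well plates to compound at five concentrations. Here, GI50 denotes the concentration required for 50% inhibition of growth.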 Activity calls are given as the source filed them. Rule as the data show it: active = GI50 up to about 1.1 µM and inactive = higher.

As for `COc1cc2c(cc1C[N+](C)(C)CSc1ccccc1)-c1ccccc1CC2`, the GI50 was 18.5 µM (inactive) in experiment [1]; 1.75 µM (inactive) in experiment [2]; 2.25 µM (inactive) in experiment [3]; 4.99 µM (inactive) in [4]; 2.18 µM (inactive) in experiment [5]; 2.2 µM (inactive) in experiment [6]. Besides, the GI50 was 2.86 µM (inactive) in experiment [7]; 1.77 µM (inactive) in experiment [8]; 3.76 µM (inactive) in [9]; 3.29 µM (inactive) in [10]; 37.5 µM (inactive) in experiment [11]; 12 µM (inactive) in experiment [12]. In addition, the GI50 in experiment [13] was 3.9 µM (inactive); in experiment [14] it was 6.53 µM (inactive); in experiment [15], 7.96 µM (inactive); in [16], 4.31 µM (inactive); in experiment [17], 1.17 µM (inactive); in experiment [18], 10.4 µM (inactive). The figures for the GI50 in experiment [19] and in [20] were 2.52 µM (inactive) and 15.2 µM (inactive), respectively.
For the compound `CC1(C)OC(CP(c2ccccc2)c2ccccc2)C(CP(c2ccccc2)c2ccccc2)O1` (stereo not given), the GI50 in experiment [1] is 3.39 µM (inactive); in experiment [2] it was 0.0792 µM (active); in experiment [3] it was 0.656 µM (active); in experiment [4], 2.02 µM (inactive); in experiment [5], 0.372 µM (active); in experiment [6], 0.617 µM (active). Moreover, the GI50 in [7] is 1.22 µM (inactive); in experiment [8], 1.52 µM (inactive); in [9] it was 0.485 µM (active); in experiment [10], 0.417 µM (active); in experiment [11], > 100 µM (inactive); in experiment [12], 2.25 µM (inactive). In addition, the GI50 in [13] was 0.741 µM (active); in experiment [14], 0.857 µM (active); in experiment [15] it was 2.1 µM (inactive); in [16] it was > 28.2 µM (inactive); in experiment [17], 2.13 µM (inactive); in experiment [18], 1.17 µM (inactive). For the same compound, the figures for the GI50 in experiment [19] and in [20] were 1.97 µM (inactive) and 1.69 µM (inactive), respectively.
As to `CCCCCCCC(CC(=O)NC(CO)C(=O)NC(CO)CC(C)C)OC(=O)CC(CCCCCCC)OC(=O)CC(CCCCCCC)OC1OC(C)C(O)C(OC2OC(C)C(O)C(O)C2O)C1O` (stereo not given), the GI50 in experiment [1] is 18.7 µM (inactive); in experiment [2], 8.87 µM (inactive); in experiment [3], 9.16 µM (inactive); in experiment [4], 8.45 µM (inactive); in experiment [5], 5.12 µM (inactive); in experiment [6], 11.7 µM (inactive). Further, the GI50 is 13.2 µM (inactive) in experiment [7]; 6.92 µM (inactive) in experiment [8]; 14.3 µM (inactive) in experiment [9]; 6.73 µM (inactive) in experiment [10]; 17.9 µM (inactive) in [11]; 13.1 µM (inactive) in experiment [12]. For the same compound, the GI50 in experiment [13] is 16.3 µM (inactive); in [14] it was 13.7 µM (inactive); in experiment [15], 11.7 µM (inactive); in experiment [16], 7.94 µM (inactive); in experiment [17] it was 7.83 µM (inactive); in experiment [18], 15.7 µM (inactive). The GI50 in experiment [19] was 14.1 µM (inactive); in experiment [20], 16.6 µM (inactive).
With `Cn1ccnc1Sc1ccc(/C=N/c2ccc3nc(SCC(=O)NC4CCCCC4)sc3c2)cc1[N+](=O)[O-]`, the GI50 in experiment [1] was 14.6 µM (inactive); in experiment [2] it was > 100 µM (inactive); in [3], > 100 µM (inactive); in [4] it was 18.6 µM (inactive); in experiment [5], > 100 µM (inactive); in [6], > 100 µM (inactive). Moreover, the GI50 in experiment [7] was 31.4 µM (inactive); in experiment [8], > 100 µM (inactive); in [9], 37.5 µM (inactive); in experiment [10] it was > 100 µM (inactive); in experiment [11] it was > 100 µM (inactive); in experiment [12] it was > 100 µM (inactive). The GI50 in experiment [13] was > 100 µM (inactive); in experiment [14], 7.45 µM (inactive); in experiment [15], 5.68 µM (inactive); in experiment [16], > 100 µM (inactive); in [17], > 100 µM (inactive); in experiment [18], > 100 µM (inactive). Also, the GI50 was 19.5 µM (inactive) in experiment [19] and > 100 µM (inactive) in experiment [20].
In the case of `Cc1cc(=O)oc2c(C)c(O)ccc12`, the GI50 was 78.9 µM (inactive) in experiment [1]; > 100 µM (inactive) in experiment [2]; > 100 µM (inactive) in [3]; > 100 µM (inactive) in [4]; > 100 µM (inactive) in experiment [5]; > 100 µM (inactive) in experiment [6]. The GI50 in [7], in experiment [8], in [9], in experiment [10], in experiment [11] and in [12] was > 100 µM (inactive) in each case. Further, the GI50 in [13], in [14], in experiment [15], in experiment [16], in [17] and in experiment [18] was > 100 µM (inactive) in each case. Further, the values for the GI50 in experiment [19] and in [20] were 99.3 µM (inactive) and 22.4 µM (inactive), respectively.
With `c1nc(NCCc2c[nH]cn2)c2nc[nH]c2n1`, the GI50 in [1], in experiment [2], in [3], in [4], in experiment [5] and in experiment [6] was > 100 µM (inactive) throughout. Besides, the GI50 in experiment [7], in [8], in experiment [9], in [10], in experiment [11] and in [12] was > 100 µM (inactive) each time. In addition, the GI50 in [13], in [14], in experiment [15], in experiment [16], in [17] and in experiment [18] was > 100 µM (inactive) throughout. Moreover, the GI50 in experiment [19] and in [20] was > 100 µM (inactive) throughout.
`Cc1c2ccccc2c(C2C3C(=O)N(c4cccc5ccccc45)C(=O)C3ON2Cc2ccc(CC(N)=O)cc2)c2ccccc12` (stereo not given): the GI50 in experiment [1] was 35.6 µM (inactive); in experiment [2], 7.78 µM (inactive); in experiment [3] it was 10.2 µM (inactive); in experiment [4] it was 27.6 µM (inactive); in experiment [5], 15.7 µM (inactive); in experiment [6], 18.2 µM (inactive). The GI50 in experiment [7] is 23.3 µM (inactive); in experiment [8], 11.5 µM (inactive); in experiment [9], 25.1 µM (inactive); in experiment [10], 13.5 µM (inactive); in experiment [11], 39.7 µM (inactive); in [12] it was 24.9 µM (inactive). Besides, the GI50 was 22.4 µM (inactive) in experiment [13]; 8.59 µM (inactive) in experiment [14]; 12 µM (inactive) in experiment [15]; > 50 µM (inactive) in [16]; 10.5 µM (inactive) in [17]; 20.3 µM (inactive) in experiment [18]. In addition, the values for the GI50 in experiment [19] and in [20] were 14.4 µM (inactive) and 24.7 µM (inactive), respectively.
Regarding `C[C@]12CC[C@H]3[C@@H](CC=C4C[C@@H](N5CCCC5)CC[C@@]43C)[C@@H]1C[C@H](N1CCCCC1)[C@@H]2O`, the GI50 in [1] is > 100 µM (inactive); in experiment [2] it was 93.3 µM (inactive); in experiment [3], 14.3 µM (inactive); in experiment [4], > 100 µM (inactive); in [5] it was 16.9 µM (inactive); in experiment [6], > 100 µM (inactive). For the same compound, the GI50 was > 100 µM (inactive) in experiment [7]; 61.1 µM (inactive) in experiment [8]; > 100 µM (inactive) in [9]; > 100 µM (inactive) in experiment [10]; > 100 µM (inactive) in [11]; 99.8 µM (inactive) in experiment [12]. The GI50 in experiment [13] is > 100 µM (inactive); in experiment [14] it was > 100 µM (inactive); in experiment [15], 39.7 µM (inactive); in experiment [16], 45.3 µM (inactive); in [17] it was 51.1 µM (inactive); in experiment [18] it was > 100 µM (inactive). For the same compound, the GI50 in [19] and in experiment [20] was > 100 µM (inactive) each time.

These data come from ChEMBL document CHEMBL1201862, “PubChem BioAssay data set” (2004).
